Measured values taken from US7807381B2, “Methods for assessing CDK5 activation and function” (The Board of Regents of the University of Texas System, priority 2007, dated 2010).

Experiments:
[1] = tested on: Cdk5 sites; assay: Quantitative immunoblot of Cdk5-site phosphorylation in acute striatal slices incubated with NMDA; assay type: cell-based; settings: NMDA at doses and times indicated, n=3-12
Procedure: (§1) FIGS. 5A-B—NMDA receptor activation inhibits Cdk5 and the cytoplasmic domain is a Cdk5 inhibitor. (FIG. 5A) Reduction in phosphorylation of three Cdk5 sites by NMDA. Quantitative immunoblot analyses is shown of acute striatal slices incubated with NMDA for the doses and times indicated, n=3-12. *p<0.05; **p<0.01 vs. control, one-way ANOVA with Dunnett's multiple comparison test. (FIG. 5B) Inhibition of Cdk5-dependent phosphorylation of inhibitor-1 by NR2B as assessed by time-course (top), dose-response (middle), and Line-Weaver Burke (bottom) analyses of in vitro phosphorylation reactions conducted in the presence of the indicated inhibitors or control proteins.
To determine if these observations were related, the inventors conducted in vitro phosphorylation reactions with Cdk5 and a test substrate, protein phosphatase inhibitor-1. […] Kinetic analysis confirmed that the NR2B receptor cytoplasmic domain functions as a potent and selective inhibitor of Cdk5 (IC50˜4 μM) and indicated a noncompetitive inhibition mechanism. […] These new data further confirm that NR2B can block Cdk5 activity, and further, that these interactions may be targeted for disruption so that Cdk5 may be uncoupled from NMDA receptors.

[2] = biological target: Cdk5 (Homo sapiens, UniProt Q00535); assay: in vitro phosphorylation reactions with Cdk5 and test substrate protein phosphatase inhibitor-1; assay type: biochemical; settings: preliminary data
Chain of Cdk5 (Q00535 whole entry, species assumed): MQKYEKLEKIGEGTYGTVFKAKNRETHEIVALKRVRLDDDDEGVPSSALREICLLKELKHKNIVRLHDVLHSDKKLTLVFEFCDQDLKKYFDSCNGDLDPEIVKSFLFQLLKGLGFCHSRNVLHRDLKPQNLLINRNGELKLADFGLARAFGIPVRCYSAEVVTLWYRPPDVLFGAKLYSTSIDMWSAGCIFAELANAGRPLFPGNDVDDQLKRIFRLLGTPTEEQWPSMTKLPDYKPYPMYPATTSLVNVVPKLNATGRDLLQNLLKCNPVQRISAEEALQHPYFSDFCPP
Procedure: as §1
To determine if these observations were related, the inventors conducted in vitro phosphorylation reactions with Cdk5 and a test substrate, protein phosphatase inhibitor-1. […] Kinetic analysis confirmed that the NR2B receptor cytoplasmic domain functions as a potent and selective inhibitor of Cdk5 (IC50˜4 μM) and indicated a noncompetitive inhibition mechanism. […]
Cdk5 phosphorylation activity assays may generally comprise ^32P-incoporation into substrates as determined by phosphorimager analysis. Alternatively, phosphorylation may be detected by either Western blot or ELISA using a control Cdk5 substrate and a phosphorylation state-specific antibody to a Cdk5 phosphorylation site on the substrate. […]

Row | inhibition of Cdk5 (qualitative) [2] | Compound | phosphorylation of three Cdk5 sites [1]
1 | – | CN[C@H](CC(=O)O)C(=O)O [NMDA] | Reduction
2 | effective inhibitor | peptide encompassing amino acid residues 1101-1130 of NR2B: a peptide encompassing amino acid residues 1101-1130 of NR2B (EFDEIELAYRRRPPRSPDHKRYFRDKEGLR; UniProt Q13224 1101-1130, looked up, fragment) | –
